Laboratory results taken from ChEMBL document CHEMBL1131932, “Simplification of adenophostin A defines a minimal structure for potent glucopyranoside-based mimics of D-myo-inositol 1,4,5-trisphosphate” (Bioorg Med Chem Lett, 1999).

Species on record: Rattus norvegicus
Test: Effect on [Ca2+] efflux in rat hepatocytes
Type: functional
Conditions: Hepatocyte

## O=P(O)(O)O[C@@H]1[C@H](O)[C@@H](O[C@@H]2COC[C@@H]2OP(=O)(O)O)O[C@@H](CO)[C@H]1OP(=O)(O)O
  EC50: 194 nM

## O=P(O)(O)O[C@@H]1[C@H](O)[C@H](O)[C@@H](OP(=O)(O)O)[C@H](OP(=O)(O)O)[C@H]1O [INS(1,4,5)P3]
  EC50: 329 nM
